In the Kinase Knowledgebase extract (Sharma et al. 2016):

Experiments:
[1] = target: PIK3CA (human) (UniProt P42336); experiment: Cell-Based Assay
[2] = target: PIK3CB (Human) (UniProt P42338); experiment: Enzyme Assay
[3] = target: PIK3CD (Human) (UniProt O00329); experiment: Enzyme Assay
[4] = target: PIK3CA (human) (UniProt P42336); experiment: Enzyme Assay
[5] = target: PIK3CG (human) (UniProt P48736); experiment: Enzyme Assay
Sequence of PIK3CG (human) (P48736 whole entry, looked up): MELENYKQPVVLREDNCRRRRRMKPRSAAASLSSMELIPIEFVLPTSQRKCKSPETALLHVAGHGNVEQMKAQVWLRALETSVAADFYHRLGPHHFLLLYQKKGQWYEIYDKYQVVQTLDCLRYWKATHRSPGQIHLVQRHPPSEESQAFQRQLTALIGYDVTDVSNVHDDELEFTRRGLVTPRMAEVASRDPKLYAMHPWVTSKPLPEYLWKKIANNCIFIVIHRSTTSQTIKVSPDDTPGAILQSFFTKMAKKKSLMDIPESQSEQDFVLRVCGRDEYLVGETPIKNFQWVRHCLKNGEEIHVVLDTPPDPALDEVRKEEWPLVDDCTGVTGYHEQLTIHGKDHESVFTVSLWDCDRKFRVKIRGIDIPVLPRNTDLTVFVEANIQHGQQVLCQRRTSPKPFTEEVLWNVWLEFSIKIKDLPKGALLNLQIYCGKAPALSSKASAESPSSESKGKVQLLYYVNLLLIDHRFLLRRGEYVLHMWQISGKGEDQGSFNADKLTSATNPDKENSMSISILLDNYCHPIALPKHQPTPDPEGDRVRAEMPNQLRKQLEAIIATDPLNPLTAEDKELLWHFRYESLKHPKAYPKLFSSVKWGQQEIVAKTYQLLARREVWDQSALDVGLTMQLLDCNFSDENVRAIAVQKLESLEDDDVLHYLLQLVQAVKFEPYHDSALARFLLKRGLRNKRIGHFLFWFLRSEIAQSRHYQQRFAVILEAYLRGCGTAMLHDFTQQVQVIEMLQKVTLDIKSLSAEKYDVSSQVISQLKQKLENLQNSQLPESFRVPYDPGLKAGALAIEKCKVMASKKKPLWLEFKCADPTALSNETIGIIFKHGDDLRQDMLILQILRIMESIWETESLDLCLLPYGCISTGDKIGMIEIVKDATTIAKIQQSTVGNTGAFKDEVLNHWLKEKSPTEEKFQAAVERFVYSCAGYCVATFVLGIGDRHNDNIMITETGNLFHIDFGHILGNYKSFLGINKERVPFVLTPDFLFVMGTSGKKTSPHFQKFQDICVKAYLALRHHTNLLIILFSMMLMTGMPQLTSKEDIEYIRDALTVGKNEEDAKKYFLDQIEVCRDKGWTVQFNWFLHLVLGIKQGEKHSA

Sequence of PIK3CD (Human) (O00329 whole entry, looked up): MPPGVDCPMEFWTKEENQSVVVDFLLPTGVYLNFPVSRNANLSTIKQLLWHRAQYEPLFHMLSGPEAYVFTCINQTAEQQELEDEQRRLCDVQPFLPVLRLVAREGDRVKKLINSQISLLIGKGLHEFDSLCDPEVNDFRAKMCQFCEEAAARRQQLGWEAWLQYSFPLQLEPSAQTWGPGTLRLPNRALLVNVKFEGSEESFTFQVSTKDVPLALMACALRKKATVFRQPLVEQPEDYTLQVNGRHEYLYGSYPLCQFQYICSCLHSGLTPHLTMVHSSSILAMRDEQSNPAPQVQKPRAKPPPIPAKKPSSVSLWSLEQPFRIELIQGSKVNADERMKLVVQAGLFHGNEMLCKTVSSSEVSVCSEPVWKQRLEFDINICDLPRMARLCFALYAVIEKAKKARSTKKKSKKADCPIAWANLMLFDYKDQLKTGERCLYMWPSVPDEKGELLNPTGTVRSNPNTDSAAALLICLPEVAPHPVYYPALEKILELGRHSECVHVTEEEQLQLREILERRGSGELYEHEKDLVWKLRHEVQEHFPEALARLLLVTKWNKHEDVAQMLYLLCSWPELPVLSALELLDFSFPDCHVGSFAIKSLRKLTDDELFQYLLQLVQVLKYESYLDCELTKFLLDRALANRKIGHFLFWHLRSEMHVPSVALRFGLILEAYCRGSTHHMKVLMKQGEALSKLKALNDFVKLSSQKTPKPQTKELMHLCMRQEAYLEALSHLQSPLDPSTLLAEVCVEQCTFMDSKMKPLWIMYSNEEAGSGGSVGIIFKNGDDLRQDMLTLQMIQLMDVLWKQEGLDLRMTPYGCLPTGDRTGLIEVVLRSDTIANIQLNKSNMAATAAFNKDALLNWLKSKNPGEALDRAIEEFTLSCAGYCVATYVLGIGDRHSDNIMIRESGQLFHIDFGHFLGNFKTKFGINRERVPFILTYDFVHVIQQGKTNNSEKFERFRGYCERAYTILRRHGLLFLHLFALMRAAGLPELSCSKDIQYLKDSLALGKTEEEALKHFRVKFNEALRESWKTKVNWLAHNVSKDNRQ
Sequence of PIK3CA (human) (P42336 whole entry, looked up): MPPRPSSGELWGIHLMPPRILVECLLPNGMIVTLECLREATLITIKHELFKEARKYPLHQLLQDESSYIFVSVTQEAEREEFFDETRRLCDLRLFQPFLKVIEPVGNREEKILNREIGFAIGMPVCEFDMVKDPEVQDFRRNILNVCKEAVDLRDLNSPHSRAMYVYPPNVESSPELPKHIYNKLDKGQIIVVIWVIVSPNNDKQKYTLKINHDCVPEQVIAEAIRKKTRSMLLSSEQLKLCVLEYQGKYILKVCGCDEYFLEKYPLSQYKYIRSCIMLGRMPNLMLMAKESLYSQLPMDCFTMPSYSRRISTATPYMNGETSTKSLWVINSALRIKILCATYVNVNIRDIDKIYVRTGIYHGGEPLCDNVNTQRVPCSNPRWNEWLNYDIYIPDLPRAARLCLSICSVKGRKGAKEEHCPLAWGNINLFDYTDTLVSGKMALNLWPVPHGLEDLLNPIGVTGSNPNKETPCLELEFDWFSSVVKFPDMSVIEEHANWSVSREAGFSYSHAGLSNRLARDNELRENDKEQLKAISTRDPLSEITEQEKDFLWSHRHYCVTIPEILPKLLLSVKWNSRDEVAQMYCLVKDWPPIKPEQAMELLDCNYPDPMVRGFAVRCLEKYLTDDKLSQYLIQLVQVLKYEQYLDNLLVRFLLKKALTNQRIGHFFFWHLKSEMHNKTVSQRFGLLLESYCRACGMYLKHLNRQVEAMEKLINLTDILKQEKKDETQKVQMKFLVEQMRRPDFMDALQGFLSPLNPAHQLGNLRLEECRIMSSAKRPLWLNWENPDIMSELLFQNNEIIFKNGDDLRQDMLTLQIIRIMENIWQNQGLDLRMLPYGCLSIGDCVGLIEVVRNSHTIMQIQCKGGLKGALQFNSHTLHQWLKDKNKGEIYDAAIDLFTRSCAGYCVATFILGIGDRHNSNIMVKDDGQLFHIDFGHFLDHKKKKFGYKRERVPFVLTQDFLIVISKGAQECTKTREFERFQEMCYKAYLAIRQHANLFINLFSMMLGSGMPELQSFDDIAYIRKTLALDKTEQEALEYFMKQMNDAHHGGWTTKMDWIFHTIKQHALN
Sequence of PIK3CB (Human) (P42338 whole entry, looked up): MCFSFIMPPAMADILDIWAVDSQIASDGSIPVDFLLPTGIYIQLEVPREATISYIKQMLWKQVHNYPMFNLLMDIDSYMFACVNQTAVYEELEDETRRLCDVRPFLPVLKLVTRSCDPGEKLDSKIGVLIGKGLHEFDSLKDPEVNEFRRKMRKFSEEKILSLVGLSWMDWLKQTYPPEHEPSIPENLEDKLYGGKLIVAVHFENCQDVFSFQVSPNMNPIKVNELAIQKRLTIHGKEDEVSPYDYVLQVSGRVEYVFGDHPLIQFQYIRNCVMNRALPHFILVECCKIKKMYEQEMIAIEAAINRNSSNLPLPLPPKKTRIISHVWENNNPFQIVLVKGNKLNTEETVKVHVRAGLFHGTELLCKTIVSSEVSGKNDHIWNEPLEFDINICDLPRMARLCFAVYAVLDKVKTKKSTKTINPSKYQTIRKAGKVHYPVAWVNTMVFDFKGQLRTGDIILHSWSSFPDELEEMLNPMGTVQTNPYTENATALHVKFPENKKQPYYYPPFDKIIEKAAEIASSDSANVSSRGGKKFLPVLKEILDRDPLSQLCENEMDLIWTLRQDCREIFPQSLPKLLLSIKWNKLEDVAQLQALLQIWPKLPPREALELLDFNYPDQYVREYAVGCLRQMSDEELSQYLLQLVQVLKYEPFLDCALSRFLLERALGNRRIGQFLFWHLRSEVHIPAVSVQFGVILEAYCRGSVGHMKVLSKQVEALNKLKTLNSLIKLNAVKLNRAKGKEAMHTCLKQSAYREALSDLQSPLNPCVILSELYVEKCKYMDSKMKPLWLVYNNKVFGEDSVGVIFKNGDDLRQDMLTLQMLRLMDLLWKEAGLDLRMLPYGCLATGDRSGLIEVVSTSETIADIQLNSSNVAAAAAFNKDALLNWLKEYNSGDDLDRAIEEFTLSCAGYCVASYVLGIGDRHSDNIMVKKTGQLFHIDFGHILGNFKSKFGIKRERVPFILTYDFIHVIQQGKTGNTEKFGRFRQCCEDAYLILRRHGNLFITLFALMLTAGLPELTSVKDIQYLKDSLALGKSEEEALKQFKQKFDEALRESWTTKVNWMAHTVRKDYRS

Nc1nc2ccc(-c3ccc4nccc(-c5ccncc5)c4c3)cc2o1
IC50 ([1]; pc3): < 100 nM
IC50 [2]: < 100 nM
IC50 [3]: < 100 nM
IC50 [4]: < 100 nM
IC50 [5]: < 100 nM

CC(=O)Nc1nc2ccc(-c3ccc4oc(N)nc4c3)cc2s1
IC50 ([1]; t47d): 100 to 1000 nM
IC50 [2]: 100 to 1000 nM
IC50 [3]: < 100 nM
IC50 [4]: < 100 nM
IC50 [5]: < 100 nM

CN(C)CC(=O)N1CCN(c2cnc3ccc(-c4ccc5oc(N)nc5c4)cc3n2)CC1
IC50 ([1]; t47d): 100 to 1000 nM
IC50 [2]: 100 to 1000 nM
IC50 [3]: 100 to 1000 nM
IC50 [4]: < 100 nM
IC50 [5]: 100 to 1000 nM

NC(=O)[C@H]1CCCN1c1cnc2ccc(-c3ccc4oc(N)nc4c3)cc2n1
IC50 ([1]; t47d): 100 to 1000 nM
IC50 [2]: < 100 nM
IC50 [3]: > 10000 nM
IC50 [4]: < 100 nM
IC50 [5]: < 100 nM

Nc1nc2cc(-c3ccc4ncc(NCCN5CCOCC5)nc4c3)ccc2o1
IC50 [2]: 100 to 1000 nM
IC50 [3]: 100 to 1000 nM
IC50 [4]: < 100 nM
IC50 [5]: 100 to 1000 nM
